Measured values taken from ChEMBL document CHEMBL1201862, “PubChem BioAssay data set” (2004).
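Values below derive from 48-hour exposures of cells grown in 96-well plates, with endpoints linearly interpolated between the two concentrations bracketing the appropriate inhibition level. Abbreviation: GI50, concentration required for 50% inhibition of growth.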 Calls of active or inactive are those of the source. Cut-off read from the data, not from the text of the source: active = GI50 up to about 1.1 µM and inactive = higher.

How the values were obtained:
Assay in all cases: NCI-60 cell line screen, 48 h
A498 = test system: A498
NCI-H522 = test system: NCI-H522
M14 = test system: M14
SR = test system: SR
HCC 2998 = test system: HCC 2998
Malme-3M = test system: Malme-3M
CAKI-1 = test system: CAKI-1
SK-MEL-28 = test system: SK-MEL-28
IGROV-1 = test system: IGROV-1
SK-OV-3 = test system: SK-OV-3
SN12C = test system: SN12C
CCRF-CEM = test system: CCRF-CEM
NCI-H460 = test system: NCI-H460
OVCAR-4 = test system: OVCAR-4
HOP-92 = test system: HOP-92
SF-295 = test system: SF-295
LOX IMVI = test system: LOX IMVI
EKVX = test system: EKVX

Row | Compound | GI50 (A498) | GI50 (NCI-H522) | GI50 (M14) | GI50 (SR) | GI50 (HCC 2998) | GI50 (Malme-3M) | GI50 (CAKI-1) | GI50 (SK-MEL-28) | GI50 (IGROV-1) | GI50 (SK-OV-3) | GI50 (SN12C) | GI50 (CCRF-CEM) | GI50 (NCI-H460) | GI50 (OVCAR-4) | GI50 (HOP-92) | GI50 (SF-295) | GI50 (LOX IMVI) | GI50 (EKVX)
1 | Cc1ccc(S(=O)(=O)NC2(C=O)CCCC3CCCCC32)cc1 (stereo not given) | > 100 µM (inactive) | > 100 µM (inactive) | > 100 µM (inactive) | > 100 µM (inactive) | > 100 µM (inactive) | > 100 µM (inactive) | > 100 µM (inactive) | > 100 µM (inactive) | > 100 µM (inactive) | > 100 µM (inactive) | > 100 µM (inactive) | > 100 µM (inactive) | > 100 µM (inactive) | > 100 µM (inactive) |  |  |  | 
2 | CCC(CC)NC1=C(NC(C)=O)C(=O)c2ccccc2C1=O |  | > 50 µM (inactive) | > 50 µM (inactive) | > 50 µM (inactive) | > 50 µM (inactive) | 45.4 µM (inactive) |  | > 50 µM (inactive) | > 50 µM (inactive) | > 50 µM (inactive) | > 50 µM (inactive) | > 50 µM (inactive) | > 50 µM (inactive) | > 50 µM (inactive) | 0.339 µM (active) | > 50 µM (inactive) | > 50 µM (inactive) | > 50 µM (inactive)
3 | C=CCCC(C)N(C(=O)OC(C)(C)C)S(=O)(=O)c1ccc(C)cc1 (stereo not given) |  | > 100 µM (inactive) | > 100 µM (inactive) | > 100 µM (inactive) | > 100 µM (inactive) | > 100 µM (inactive) | > 100 µM (inactive) | > 100 µM (inactive) | > 100 µM (inactive) | > 100 µM (inactive) | > 100 µM (inactive) |  | > 100 µM (inactive) | > 100 µM (inactive) | 40.2 µM (inactive) | > 100 µM (inactive) | > 100 µM (inactive) | 
4 | Oc1nc(CC(O)c2ccc(Cl)c(Cl)c2)cc(-c2ccccc2)n1 (stereo not given) | 32.7 µM (inactive) | 22.6 µM (inactive) | 91 µM (inactive) |  | 33.5 µM (inactive) | 46.8 µM (inactive) | 55.6 µM (inactive) | > 100 µM (inactive) | > 100 µM (inactive) | 43.6 µM (inactive) | > 100 µM (inactive) | 30.1 µM (inactive) | 94.8 µM (inactive) | 68.4 µM (inactive) | 82.8 µM (inactive) | 53.7 µM (inactive) | > 100 µM (inactive) | 44.9 µM (inactive)
5 | CCOC(=O)/C(=C/c1ccc(N(C)C)cc1)N(CC)CC |  | 34.3 µM (inactive) | > 100 µM (inactive) | 48.6 µM (inactive) | > 100 µM (inactive) | > 100 µM (inactive) | > 100 µM (inactive) | > 100 µM (inactive) | > 100 µM (inactive) | > 100 µM (inactive) | 84.7 µM (inactive) | 27 µM (inactive) |  | 73.1 µM (inactive) | > 100 µM (inactive) | > 100 µM (inactive) | 27.7 µM (inactive) | 35.2 µM (inactive)
6 | CCN1CCC(O)(/C=C/c2ccccc2)C(C(=O)/C=C/c2ccccc2)C1 (stereo not given) | 6.21 µM (inactive) | 1.73 µM (inactive) | 2.09 µM (inactive) |  | 1.96 µM (inactive) | 2.26 µM (inactive) | 2.71 µM (inactive) | 1.89 µM (inactive) | 1.85 µM (inactive) | 7.85 µM (inactive) | 1.79 µM (inactive) |  | 1.95 µM (inactive) | 3.27 µM (inactive) | 2.64 µM (inactive) | 2.96 µM (inactive) |  | 3.33 µM (inactive)
7 | COC(=O)c1ccc(/C=C/S(=O)(=O)c2ccccc2)cc1 | > 100 µM (inactive) | 83.9 µM (inactive) | > 100 µM (inactive) |  |  | > 100 µM (inactive) | > 100 µM (inactive) | 44.9 µM (inactive) | > 100 µM (inactive) | > 100 µM (inactive) | > 100 µM (inactive) | > 100 µM (inactive) | > 100 µM (inactive) | > 100 µM (inactive) | > 100 µM (inactive) | > 100 µM (inactive) | > 100 µM (inactive) | > 100 µM (inactive)
8 | Cc1ccc(C2[C@H]3C(=O)N(c4ccc(Cc5ccc(N6C(=O)[C@@H]7ON(c8ccccc8)C(c8ccc(C)cc8)[C@@H]7C6=O)cc5)cc4)C(=O)[C@H]3ON2c2ccccc2)cc1 (stereo not given in full) | > 100 µM (inactive) |  | 91.6 µM (inactive) |  | > 100 µM (inactive) | > 100 µM (inactive) | > 100 µM (inactive) | > 100 µM (inactive) | > 100 µM (inactive) | > 100 µM (inactive) | > 100 µM (inactive) | > 100 µM (inactive) | > 100 µM (inactive) | > 100 µM (inactive) | > 100 µM (inactive) | > 100 µM (inactive) | > 100 µM (inactive) | 
9 | O=C1NC(=O)C(C(=O)C(=O)Nc2cc(Cl)ccc2Cl)C(=O)N1 | > 100 µM (inactive) | > 100 µM (inactive) | > 100 µM (inactive) |  | > 100 µM (inactive) | > 100 µM (inactive) |  | > 100 µM (inactive) | > 100 µM (inactive) | > 100 µM (inactive) |  | > 100 µM (inactive) | > 100 µM (inactive) | > 100 µM (inactive) | 91.8 µM (inactive) | > 100 µM (inactive) |  | > 100 µM (inactive)
10 | COC(=O)C1=C(C)N(NC(=O)Nc2ccccc2)C2(N)N(NC(=O)Nc3ccccc3)C(C)=C(C(=O)OC)C12C(=O)OC (stereo not given) | 59.6 µM (inactive) | 32.3 µM (inactive) | 47.5 µM (inactive) |  | 39.4 µM (inactive) | 84.5 µM (inactive) | 23.7 µM (inactive) | > 100 µM (inactive) | 24.5 µM (inactive) | > 100 µM (inactive) | 63.2 µM (inactive) | 35.2 µM (inactive) | 38.3 µM (inactive) | 64.9 µM (inactive) | > 100 µM (inactive) |  | 72.6 µM (inactive) | 
11 | O=C(Nc1ccccc1SC(/C=C/NNC1=NN=C(c2ccccc2)C(c2ccccc2)N1)c1ccccc1)c1ccc(Cl)cc1Cl (stereo not given) | 43.5 µM (inactive) | > 100 µM (inactive) |  |  | 47 µM (inactive) | > 100 µM (inactive) |  | 38.8 µM (inactive) | 50 µM (inactive) | 49.3 µM (inactive) | 32.6 µM (inactive) | 48.8 µM (inactive) | 42.7 µM (inactive) | 35.9 µM (inactive) |  | 25.6 µM (inactive) | 36.2 µM (inactive) | 37.8 µM (inactive)
12 | CC(=O)O[C@]12CCCCC1C1(O)C(O)CCCC[C@H]12 (stereo not given in full) |  | > 100 µM (inactive) | > 100 µM (inactive) | > 100 µM (inactive) |  | > 100 µM (inactive) |  | > 100 µM (inactive) |  | > 100 µM (inactive) | > 100 µM (inactive) | > 100 µM (inactive) | > 100 µM (inactive) | > 100 µM (inactive) |  | > 100 µM (inactive) | > 100 µM (inactive) | > 100 µM (inactive)
13 | CC(=O)OC12C=CC(=O)N1c1ccccc1C(=O)O2 (stereo not given) |  | > 100 µM (inactive) | > 100 µM (inactive) | > 100 µM (inactive) | > 100 µM (inactive) | 0.962 µM (active) | > 100 µM (inactive) | > 100 µM (inactive) | > 100 µM (inactive) | > 100 µM (inactive) | > 100 µM (inactive) | > 100 µM (inactive) | > 100 µM (inactive) | > 100 µM (inactive) | > 100 µM (inactive) | > 100 µM (inactive) | > 100 µM (inactive) | > 100 µM (inactive)
14 | O=C1c2ccccc2C(=O)N1CCN(CCN1C(=O)c2ccccc2C1=O)Cn1cccn1 | > 100 µM (inactive) | > 100 µM (inactive) | > 100 µM (inactive) |  | > 100 µM (inactive) |  | > 100 µM (inactive) | 73.8 µM (inactive) |  | > 100 µM (inactive) | > 100 µM (inactive) | 32.7 µM (inactive) | 84.3 µM (inactive) | > 100 µM (inactive) | > 100 µM (inactive) | > 100 µM (inactive) | > 100 µM (inactive) | > 100 µM (inactive)
15 | CCC1(CN(C)C)CC/C(=C\c2ccc3c(c2)OCO3)C1=O (stereo not given) | > 100 µM (inactive) | 49.9 µM (inactive) | > 100 µM (inactive) |  | > 100 µM (inactive) | > 100 µM (inactive) | > 100 µM (inactive) | > 100 µM (inactive) | > 100 µM (inactive) |  | > 100 µM (inactive) | 48.6 µM (inactive) |  | > 100 µM (inactive) | > 100 µM (inactive) | > 100 µM (inactive) | > 100 µM (inactive) | 52.1 µM (inactive)
16 | Cc1cc(NS(=O)(=O)c2ccc(Nc3c4ccccc4nc4c(C(=O)NCCN(C)C)cccc34)cc2)no1 |  | 0.813 µM (active) | 5.08 µM (inactive) | 0.272 µM (active) | 3.87 µM (inactive) |  |  | 10.9 µM (inactive) | 2.37 µM (inactive) |  | 3.01 µM (inactive) | 1.08 µM (active) | 0.685 µM (active) | 10.7 µM (inactive) |  | 8.38 µM (inactive) | 1.35 µM (inactive) | 5.09 µM (inactive)
17 | C=CC1(C)CCC(C(C)C(=O)C(C=C(C)C)OC(C)=O)C12C(=O)Oc1ccccc1C2=O (stereo not given) |  | 31.6 µM (inactive) | 54.2 µM (inactive) | 33.6 µM (inactive) | 82.4 µM (inactive) | 48.5 µM (inactive) |  | > 100 µM (inactive) | 72.3 µM (inactive) | 82.2 µM (inactive) | 49.4 µM (inactive) | 27 µM (inactive) | 29.6 µM (inactive) | 45.2 µM (inactive) | 40.2 µM (inactive) | 47.9 µM (inactive) | 35.7 µM (inactive) | 60.8 µM (inactive)
18 | CC1C=C[C@H](Sc2ccccc2)CC[C@@]1(C)O (stereo not given in full) | > 100 µM (inactive) |  | > 100 µM (inactive) |  | > 100 µM (inactive) | > 100 µM (inactive) | > 100 µM (inactive) | > 100 µM (inactive) | > 100 µM (inactive) | > 100 µM (inactive) | > 100 µM (inactive) | 34.7 µM (inactive) | > 100 µM (inactive) |  | 40.5 µM (inactive) |  | > 100 µM (inactive) | > 100 µM (inactive)
